Legend:
dN-SARM1 protein = biological target: T1, dN-SARM1 protein (Homo sapiens, UniProt Q6SZW1); assay: In vitro biochemical assay for inhibiting SARM1 enzymatic activity (IC50), PC6 fluorescence method; settings: 50 μM NAD, 50 μM PC6, 50 μM NMN activator
T1 construct: the N-terminal mitochondrial localization signal peptide of SARM1 was removed
T1 sequence (Q6SZW1 28-724): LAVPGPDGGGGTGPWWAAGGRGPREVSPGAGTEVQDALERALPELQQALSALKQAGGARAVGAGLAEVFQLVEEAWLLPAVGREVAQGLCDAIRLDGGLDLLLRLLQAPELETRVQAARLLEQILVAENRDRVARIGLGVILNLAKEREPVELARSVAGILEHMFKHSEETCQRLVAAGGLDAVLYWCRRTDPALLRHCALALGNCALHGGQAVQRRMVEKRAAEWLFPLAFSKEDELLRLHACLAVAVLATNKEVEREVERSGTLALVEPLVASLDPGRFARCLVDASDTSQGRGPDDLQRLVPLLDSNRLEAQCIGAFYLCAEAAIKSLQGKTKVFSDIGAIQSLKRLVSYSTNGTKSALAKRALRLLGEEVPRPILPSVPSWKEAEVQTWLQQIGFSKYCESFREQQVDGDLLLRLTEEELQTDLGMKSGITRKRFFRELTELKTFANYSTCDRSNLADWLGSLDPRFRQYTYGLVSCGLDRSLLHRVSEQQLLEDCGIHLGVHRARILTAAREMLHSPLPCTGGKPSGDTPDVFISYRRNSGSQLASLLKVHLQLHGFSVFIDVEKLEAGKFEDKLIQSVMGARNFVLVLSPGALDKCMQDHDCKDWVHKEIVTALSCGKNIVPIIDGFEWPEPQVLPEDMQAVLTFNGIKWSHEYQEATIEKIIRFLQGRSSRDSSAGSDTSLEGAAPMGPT
Summary of the method: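 Activity read as the rate of PC6 fluorescence change (390 nm excitation, 520 nm emission) over a 30 min room-temperature reaction containing final 50 μM each of NAD, PC6 and NMN activator. Enzyme, 0.05 μg/ml dN-SARM1 in 50 mM Tris-HCl pH 7.5, first incubated 10 min with compound diluted serially from 200 μM; IC50 calculated.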

[1] = biological target: T2, SARM1 protein in iSARM1 (HEK293) cells (Homo sapiens, UniProt Q6SZW1); assay: Inhibitory activity in inducible SARM1 overexpressing cell line, intracellular cADPR level; format: cell-based; settings: activator CZ-48 100 μM, cADPR content
T2 construct: The full-length SARM1 was synthesized into the pUC57 plasmid by WZ Biosciences Inc., and PCR was performed using pUC57-SARM1 as a DNA template
T2 sequence (Q6SZW1 28-724): T1 sequence (Q6SZW1 28-724)
Procedure: In this example, the gene sequence of SARM1 was amplified using PCR, and constructed into pInducer20-neo plasmid. pInducer20-SARM1 virus was packaged in a liposome and infected HEK293 to obtain an inducible SARM1-overexpressing cell line, which was labeled as iSARM1 (HEK293). The specific preparation was as follows:
First, a 96-well culture plate was treated with 0.05 mg/ml polylysine for 5 minutes and washed once with PBS. 3×10^4 iSARM1 (HEK293) cells were plated into the 96-well plate and cultured overnight in a 37° C. and 5% incubator. The next day, the cells were added with an inhibitor with a final concentration of 50 μM, incubated in the incubator for 1.5 hours, added with activator CZ-48 with a final concentration of 100 μM, and incubated for 16 hours. Meanwhile, the cells without adding CZ-48 or without adding drug were set as control group. Finally, the intracellular cADPR level was detected to represent the activity of SARM1, and the inhibition rate of SARM1 in cells by 50 μM inhibitor was calculated.
The cADPR measurement was performed as follows. First, the cells were washed once with PBS, and added with 150 μl of pre-cooled 0.6M perchloric acid (PCA) to quickly lyse the cells and precipitate the protein. The PCA supernatant was transferred to a 1.5 ml centrifuge tube. The protein in the culture medium was dissolved again with 100 μl of 1M NaOH. The supernatant was added with 0.5 ml of organic reagent mixture (trioctylamine:chloroform=1:3) to extract PCA from water. After sufficient shaking, the mixture was centrifuged at 12,000 rpm for 10 minutes. The solution was divided into 3 layers: the upper aqueous phase, containing the small molecules of interest; the lower organic phase, in which PCA was dissolved; and a thin protein layer between the upper and lower layers. The upper layer was transferred to a new centrifuge tube, added with 1M Tris-Mg at a ratio of 1:100 (1M Tris (pH 8.0): 1M MgCl2=9:1), added with NADase at a ratio of 1:250, and treated at 37° C. overnight to remove NAD^+ from the mixed solution. After the treatment was completed, the mixed solution was filtered using Millipore's 10 K 96-well filter plate to remove NADase.
The cADPR content in the solution was determined through Cycling analysis method. The specific steps were as follows: 20 μl of the sample to be tested or the cADPR standard was taken and added to a 96-well opaque white plate. Preparation of reaction solution: 9.6 ml of PBS (pH 7.4), 200 μl of ethanol, 150 μl of 1 mg/ml AD, 10 μl of 10 mM FMN, 5 μl of 18 mg/ml Diaphorase, 10 μl of 10 mM Resazurin, and 100 μl of 1M Nam. Half of the reaction solution was divided and added with 0.2 μg/ml cyclase. The reaction solution without adding cyclase was used as control experiment. Each sample was divided into two groups, 3 replicates in each group. The reaction solutions containing or not containing cyclase were added to each group to perform the reaction. The reaction kinetic curve within 30 minutes was recorded (Ex:Em=544/599). The average slope of the reaction was calculated. Conversion was performed according to cADPR standard to obtain the accurate cADPR content. A curve of intracellular cADPR content vs corresponding inhibitor concentration was plotted. The half inhibitory concentration of the inhibitor was calculated.

IC50 (dN-SARM1 protein) [nM] | EC50 [1] [nM] | Structure (SMILES)
1000 to 10000 | 1000 to 10000 | CNc1ccc2ncc(-c3ccc(S(N)(=O)=O)cc3)n2c1 [Compound 63, 4-(6-(methylamino)imidazo[1,2-a]pyridin-3-yl)benzenesulfonamide]
1000 to 10000 | 1000 to 10000 | CN(C(=O)OC(C)(C)C)c1ccc2ncc(-c3cccc(NC(=O)COCCOCCOCC(N)=O)c3)n2c1 [Compound 99, tert-butyl (3-(3-(2-(2-(2-(2-amino-2-oxoethoxy)ethoxy)ethoxy)acetamido)phenyl)imidazolin[1,2-a]pyridin-6-yl)(methyl)carbamate]
1000 to 10000 | 1000 to 10000 | CN(C(=O)OC(C)(C)C)c1ccc2ncc(-c3cccc4[nH]ccc34)n2c1 [Compound 275]
< 1000 | < 1000 | CN(C(=O)OC(C)(C)C)c1ccc2ncc(-c3cccc4ncccc34)n2c1 [Compound 262]
1000 to 10000 | 1000 to 10000 | CNc1ccc2ncc(-c3nn4ccnc4s3)n2c1 [Compound 185]
1000 to 10000 | 1000 to 10000 | CNC(=O)c1cccc(-c2cnc3ccc(N(C)C(=O)OC(C)(C)C)cn23)c1 [Compound 276]
1000 to 10000 | < 1000 | CN(C(=O)OC(C)(C)C)c1ccc2ncc(-c3ccc(S(N)(=O)=O)cc3)n2c1 [Compound 6]
1000 to 10000 | 1000 to 10000 | CNc1ccc2ncc(-c3ccccc3Cl)n2c1 [Compound 68, 3-(2-chlorophenyl)-N-methylimidazo[1,2-a]pyridin-6-amine]
1000 to 10000 | < 1000 | Ic1cnc2ccc(-n3cccn3)cn12 [Compound 201, 3-iodo-6-(1H-pyrazol-1-yl)imidazo[1,2-a]pyridine]
1000 to 10000 | 1000 to 10000 | CN(C(=O)OC(C)(C)C)c1ccc2ncc(-c3cccc(O)c3)n2c1 [Compound 272]
1000 to 10000 | 1000 to 10000 | CN(C(=O)OC(C)(C)C)c1ccc2ncc(-c3cccnc3)n2c1 [Compound 15]
1000 to 10000 | 1000 to 10000 | COc1ccc(-c2cnc3ccc(N(C)C(=O)OC(C)(C)C)cn23)cc1 [Compound 14]
< 1000 | 1000 to 10000 | CN(C(=O)OC(C)(C)C)c1ccc2ncc(-c3nn4ccnc4s3)n2c1 [Compound 168]
< 1000 | 1000 to 10000 | CNc1ccc2ncc(-c3cccc(NC(=O)C4CCCO4)c3)n2c1 (centres unmarked) [Compound 236]
1000 to 10000 | 1000 to 10000 | CNc1ccc2ncc(-c3cccc(CNC(=O)c4ccccc4)c3)n2c1 [Compound 253]
< 1000 | 1000 to 10000 | CNc1ccc2ncc(-c3cccc4[nH]ccc34)n2c1 [Compound 255]

IC50 (dN-SARM1 protein) [nM] | EC50 [1] [nM] | Structure (SMILES)
1000 to 10000 | < 1000 | CN(C(=O)OC(C)(C)C)c1ccc2ncc(-c3cccc(N(C)C(=O)C4CCOCC4)c3)n2c1 [Compound 158, tert-butyl methyl (3-(3-(N-methyltetrahydro-2H-pyran-4-carboxamido)phenyl)imidazo[1,2-a]pyridin-6-yl)carbamate]
1000 to 10000 | 1000 to 10000 | CN(C(=O)OC(C)(C)C)c1ccc2ncc(-c3ccccc3)n2c1 [Compound 8]
1000 to 10000 | < 1000 | CN(C(=O)OC(C)(C)C)c1ccc2ncc(C3CCCCC3)n2c1 [Compound 84, tert-butyl (3-cyclohexylimidazo[1,2-a]pyridin-6-yl)(methyl)carbamate]
1000 to 10000 | 1000 to 10000 | CNc1ccc2ncc(-c3cccc(NC(=O)c4ccccc4)c3)n2c1 [Compound 251]
< 1000 | < 1000 | CNc1ccc2ncc(-c3cccc(NC(=O)C4CCOCC4)n3)n2c1 [Compound 171]
< 1000 | 1000 to 10000 | CN(C(=O)OC(C)(C)C)c1ccc2ncc(-c3cccc(N)c3)n2c1 [Compound 2]
1000 to 10000 | 1000 to 10000 | CN(C(=O)OC(C)(C)C)c1ccc2ncc(-c3cccc(OCCOCc4ccccc4)c3)n2c1 [Compound 156]
1000 to 10000 | < 1000 | Cc1ncsc1-c1ccc(CNC(=O)[C@@H]2C[C@@H](O)CN2C(=O)[C@@H](NC(=O)COCCOCCOCC(=O)N(C)c2ccc3ncc(-c4ccccc4Cl)n3c2)C(C)(C)C)cc1 [Compound 118, (2S,4R)-1-((S)-15-(tert-butyl)-2-(3-(2-chlorophenyl)imidazo[1,2-a]pyridin-6-yl)-3,13-dioxo-5,8,11-trioxa-2,14-diazahexadecane-16-acyl)-4-hydroxy-N-(4-(4-methylthiazol-5-yl)benzyl) pyrrolidin-2-carboxamide]
< 1000 | 1000 to 10000 | COc1cccc(-c2cnc3ccc(N(C)C(=O)OC(C)(C)C)cn23)c1 [Compound 13]
< 1000 | < 1000 | CC(C)(C)OC(=O)Nc1ccc2ncc(-c3cccc(NC(=O)COCCOCc4ccccc4)c3)n2c1 [Compound 240]
< 1000 | < 1000 | CN(C(=O)COC1CCOC1)c1cccc(-c2cnc3ccc(N(C)C(=O)OC(C)(C)C)cn23)c1 (centres unmarked) [Compound 160]
< 1000 | < 1000 | CN(C(=O)OC(C)(C)C)c1ccc2ncc(-c3cccc(NC(=O)COCCOCC(=O)Nc4cccc(-c5cnc6ccc(N(C)C(=O)OC(C)(C)C)cn56)c4)c3)n2c1 [Compound 116, ((((((2,2′-(ethane-1,2-diylbis(oxy))bis(acetyl))bis(azadialkyl))bis(31-phenylene))bis(imidazo[1,2-a]pyridin-3,6-diyl))bis(tert butylmethylcarbamate)]
< 1000 | 1000 to 10000 | CN(C(=O)OC(C)(C)C)c1ccc2ncc(-c3ccn4ccnc4c3)n2c1 [Compound 169]
1000 to 10000 | 1000 to 10000 | CC(C)(C)OC(=O)N(C/C=C/c1cccc(N)c1)c1ccc2ncc(-c3cccc(NC(=O)C4CCOCC4)c3)n2c1 [Compound 219]
1000 to 10000 | 1000 to 10000 | CN(C(=O)OC(C)(C)C)c1ccc2ncc(-c3cccc(C(N)=O)c3)n2c1 [Compound 7]

Reference: patent US20240368168A1, “SARM1 ENZYME ACTIVITY INHIBITOR AND APPLICATION THEREOF” (ARTIVILA BIOPHARMA, priority 2021, published 2024)
